Columns and labels:
Type in all cases: functional
[1] = tested on: Candida albicans; test: Potentiation of human polymorphonuclear granulocytes-induced intracellular killing of Candida albicans at 2 ug/ml after 30 mins (Rvb =46%)
[2] = tested on: Candida albicans; test: Potentiation of human polymorphonuclear granulocytes-induced intracellular killing of Candida albicans at 2 ug/ml after 60 mins (Rvb =47%)
[3] = tested on: Candida albicans; test: Potentiation of human polymorphonuclear granulocytes-induced intracellular killing of Candida albicans at 2 ug/ml after 90 mins (Rvb =48%)
[4] = tested on: Candida albicans; test: Potentiation of human polymorphonuclear granulocytes-induced intracellular killing of Candida albicans at 3.2 ug/ml after 30 mins (Rvb =46%)
[5] = tested on: Candida albicans; test: Potentiation of human polymorphonuclear granulocytes-induced intracellular killing of Candida albicans at 3.2 ug/ml after 60 mins (Rvb =47%)
[6] = tested on: Candida albicans; test: Potentiation of human polymorphonuclear granulocytes-induced intracellular killing of Candida albicans at 3.2 ug/ml after 90 mins (Rvb =48%)
[7] = tested on: Candida albicans; test: Potentiation of human polymorphonuclear granulocytes-induced intracellular killing of Candida albicans at 8 ug/ml after 30 mins (Rvb =46%)
[8] = tested on: Candida albicans; test: Potentiation of human polymorphonuclear granulocytes-induced intracellular killing of Candida albicans at 8 ug/ml after 60 mins (Rvb =47%)
[9] = tested on: Candida albicans; test: Potentiation of human polymorphonuclear granulocytes-induced intracellular killing of Candida albicans at 8 ug/ml after 90 mins (Rvb =48%)
[10] = tested on: Candida albicans; test: Potentiation of human polymorphonuclear granulocytes-induced intracellular killing of compound pretreated Candida albicans for 1hr at 2 ug/ml after 30 mins (Rvb =46%)
[11] = tested on: Candida albicans; test: Potentiation of human polymorphonuclear granulocytes-induced intracellular killing of compound pretreated Candida albicans for 1hr at 2 ug/ml after 60 mins (Rvb =47%)
[12] = tested on: Candida albicans; test: Potentiation of human polymorphonuclear granulocytes-induced intracellular killing of compound pretreated Candida albicans for 1hr at 2 ug/ml after 90 mins (Rvb =48%)
[13] = tested on: Candida albicans; test: Potentiation of human polymorphonuclear granulocytes-induced intracellular killing of compound pretreated Candida albicans for 1hr at 3.2 ug/ml after 30 mins (Rvb =46%)
[14] = tested on: Candida albicans; test: Potentiation of human polymorphonuclear granulocytes-induced intracellular killing of compound pretreated Candida albicans for 1hr at 3.2 ug/ml after 60 mins (Rvb =47%)
[15] = tested on: Candida albicans; test: Potentiation of human polymorphonuclear granulocytes-induced intracellular killing of compound pretreated Candida albicans for 1hr at 3.2 ug/ml after 90 mins (Rvb =48%)
[16] = tested on: Candida albicans; test: Potentiation of human polymorphonuclear granulocytes-induced intracellular killing of compound pretreated Candida albicans for 1hr at 8 ug/ml after 30 mins (Rvb =46%)
[17] = tested on: Candida albicans; test: Potentiation of human polymorphonuclear granulocytes-induced intracellular killing of compound pretreated Candida albicans for 1hr at 8 ug/ml after 60 mins (Rvb =47%)
[18] = tested on: Candida albicans; test: Potentiation of human polymorphonuclear granulocytes-induced intracellular killing of compound pretreated Candida albicans for 1hr at 8 ug/ml after 90 mins (Rvb =48%)
[19] = tested on: Candida albicans; test: Potentiation of compound pretreated human polymorphonuclear granulocytes-induced intracellular killing of Candida albicans at 2 ug/ml after 30 mins (Rvb =46%)
[20] = tested on: Candida albicans; test: Potentiation of compound pretreated human polymorphonuclear granulocytes-induced intracellular killing of Candida albicans at 2 ug/ml after 60 mins (Rvb =47%)
[21] = tested on: Candida albicans; test: Potentiation of compound pretreated human polymorphonuclear granulocytes-induced intracellular killing of Candida albicans at 2 ug/ml after 90 mins (Rvb =48%)
[22] = tested on: Candida albicans; test: Potentiation of compound pretreated human polymorphonuclear granulocytes-induced intracellular killing of Candida albicans at 3.2 ug/ml after 30 mins (Rvb =46%)
[23] = tested on: Candida albicans; test: Potentiation of compound pretreated human polymorphonuclear granulocytes-induced intracellular killing of Candida albicans at 3.2 ug/ml after 60 mins (Rvb =47%)
[24] = tested on: Candida albicans; test: Potentiation of compound pretreated human polymorphonuclear granulocytes-induced intracellular killing of Candida albicans at 3.2 ug/ml after 90 mins (Rvb =48%)
[25] = tested on: Candida albicans; test: Potentiation of compound pretreated human polymorphonuclear granulocytes-induced intracellular killing of Candida albicans at 8 ug/ml after 30 mins (Rvb =46%)
[26] = tested on: Candida albicans; test: Potentiation of compound pretreated human polymorphonuclear granulocytes-induced intracellular killing of Candida albicans at 8 ug/ml after 60 mins (Rvb =47%)
[27] = tested on: Candida albicans; test: Potentiation of compound pretreated human polymorphonuclear granulocytes-induced intracellular killing of Candida albicans at 8 ug/ml after 90 mins (Rvb =48%)

Compound `CC[C@H](C)C[C@H](C)CCCCCCCCC(=O)N[C@H]1C[C@@H](O)[C@@H](NCCN)NC(=O)[C@@H]2[C@@H](O)CCN2C(=O)[C@H]([C@H](O)CCN)NC(=O)[C@H]([C@H](O)[C@@H](O)c2ccc(O)cc2)NC(=O)[C@@H]2C[C@@H](O)CN2C(=O)[C@H]([C@@H](C)O)NC1=O` [CASPOFUNGIN] has an Activity [1] of 71%, an Activity [2] of 72% and an Activity [3] of 75%. It also gave an Activity [4] of 72%, an Activity [5] of 75% and an Activity [6] of 86%. It also gave an Activity [7] of 74%, an Activity [8] of 83% and an Activity [9] of 83%. The Activity [10] was 69%, the Activity [11] was 69% and the Activity [12] was 82%. The Activity [13] was 63%, the Activity [14] was 74% and the Activity [15] was 78%. The Activity [16] was 63%, the Activity [17] was 66% and the Activity [18] was 72%. It also gave an Activity [19] of 72%, an Activity [20] of 76% and an Activity [21] of 82%. For the same compound, the Activity [22] was 69%, the Activity [23] was 84% and the Activity [24] was 91%. It also gave an Activity [25] of 79%, an Activity [26] of 82% and an Activity [27] of 94%.
